According to US20080063628A1, “METHODS TO PROMOTE CELL DIFFERENTIATION” (priority 2006, published 2008):

What was measured:
[1] = test system: late passage (P14) pancreatic-derived stromal cell line; assay: Two sequential low dose trichostatin A treatments, gene expression by RT-PCR (Example 7); assay type: cell-based, human; conditions: for HNF (HNF-3 beta) gene expression / Insulin gene expression / Pdx-1 gene expression / glucagon gene expression: 1.25 μM 0-24 h + 96-120 h
Description: (§1) Several cell lines obtained from different amniotic fluid specimens (see Example 14) and pancreas donors (see Example 13) were tested with similar results. Two lines at similar passage number but derived from different amniotic fluid specimens are shown in Table VII-A and Table VII-B for this example. One of these cell lines was also used in examples 2 and 4 above. In addition, this example also contains comparison data in Table VII-C and Table VII-D for a single pancreatic-derived stromal line grown to early and late passage number.
(§2) Amniotic fluid derived cells or pancreatic-derived stromal cells were seeded into 24-well tissue culture plates at a density of 5000/cm^2 and cultured in AMNIOMAX (Invitrogen) or DMEM with 10% FBS respectively under standard cell culture conditions until confluent. After the cells reached confluency, amniotic fluid derived cells were treated at time 0 hours with a dose of 500 nM trichostatin A, and pancreatic-derived stromal cells were treated with a dose of 1.25 μM trichostatin A solubilized in DMSO and medium. At time 24 hours, cell cultures underwent a complete medium change to remove all traces of trichostatin A. At time 96 hours, cell cultures were re-fed with fresh medium and received a second dose of trichostatin A at the same concentration as used previously. At time 120 hours, cell cultures again underwent a complete medium change and were cultured for an additional 24 hours or […] total incubation time.
(§3) Samples were taken daily for RT-PCR at the times indicated in Table VII-A to D. The culture medium was removed, and samples were rinsed in PBS then collected in RLT with β-mercaptoethanol (Qiagen). RNA was purified using the RNeasy Mini Kit (Qiagen) and RNA quantity and quality were determined using a spectrophotometer. cDNA was made using the iScript cDNA synthesis kit (BioRad).
(§4) Samples of 20 ng cDNA were used in each reaction to determine the expression levels of the following genes in amniotic fluid-derived cells: Gata1, HNF-3 beta, Pdx-1, insulin, and Sox17. Similarly, samples of 20 ng cDNA were used in each reaction to determine the expression level of the following genes in pancreatic-derived cells: glucagon, HNF-3 beta, insulin and Pdx-1. Real-Time PCR was performed on the Applied Biosystems 7500, and data was analyzed using the accompanying software according to the methods described in Example 15.
(§5) Real-time PCR amplifcation and quantitative analysis. Unless otherwise stated, all reagents were purchased from Applied Biosystems. Real-time PCR reactions were performed using the ABI PRISM™ 7500 Sequence Detection System. TAQMAN™ FAST UNIVERSAL PCR MASTER MIX™ (ABI, CA) was used with 20 ng of reverse transcribed RNA in a total reaction volume of 20 μl. Each cDNA sample was run in duplicate to allow correction of pipetting errors. Primers and FAM-labeled TAQMAN™ probes were used at concentrations of 200 nM. The level of expression for each target gene was normalized using the pre-developed Applied Biosystem's human glyceraldehyde-3-phosphate dehydrogenase (GAPDH) endogenous control kit. Primers and probes were designed using either ABI PRISM PRIMER EXPRESS™ software or a pre-developed ABI gene analysis kit. For each gene, either one of the primers or the probe were designed to be exon-boundary spanning. This eliminated the possibility of the primers/probe binding to any genomic DNA present. The primer and probe sets are listed as follows: Pdx-1 (Hs00426216), Insulin (Hs00355773), glucagon (Hs00174967), and FoxA2 (HNF 3-beta) (Hs00232764). The remaining primers were designed using the PRIMERS program (ABI, CA). After an initial 95° C. incubation for 20 sec, samples were cycled 40 times in two stages: a denaturation step at 95° C. for 3 sec, followed by an annealing/extension step at 60° C. for 30 sec. […]

[2] = test system: second amniotic fluid-derived cell line; assay: as above; assay type: cell-based, human; conditions: for Gata1 gene expression / HNF (HNF-3 beta) gene expression / Insulin gene expression / Pdx-1 gene expression / sox17 gene expression: 500 nM 0-24 h + 96-120 h
Description: as §1, §2, §3, §4, §5

[3] = 1.25 μM, after the second treatment cycle
[4] = 1.25 μM, following first treatment

CC(/C=C/C(=O)NO)=C\[C@@H](C)C(=O)c1ccc(N(C)C)cc1 [trichostatin A]
HNF (HNF-3 beta) gene expression ([1]; 24 hrs): + (detectable between 35 and 40 cycles by RT-PCR) | Insulin gene expression ([1]; 24 hrs): nd (not detectable at >40 cycles by RT-PCR) | Pdx-1 gene expression ([1]; 24 hrs): +++ (detectable at less than 35 cycles by RT-PCR with SE less than 0.9) | glucagon gene expression ([1]; 24 hrs): +++ (detectable at less than 35 cycles by RT-PCR with SE less than 0.9) | HNF (HNF-3 beta) gene expression ([1]; 48 hrs): nd (not detectable at >40 cycles by RT-PCR) | Pdx-1 gene expression ([1]; 48 hrs): nd (not detectable at >40 cycles by RT-PCR) | glucagon gene expression ([1]; 48 hrs): +++ (detectable at less than 35 cycles by RT-PCR with SE less than 0.9) | HNF (HNF-3 beta) gene expression ([1]; 72 hrs): nd (not detectable at >40 cycles by RT-PCR) | Insulin gene expression ([1]; 72 hrs): nd (not detectable at >40 cycles by RT-PCR) | Pdx-1 gene expression ([1]; 72 hrs): nd (not detectable at >40 cycles by RT-PCR) | glucagon gene expression ([1]; 72 hrs): + (detectable between 35 and 40 cycles by RT-PCR) | HNF (HNF-3 beta) gene expression ([1]; 96 hrs): nd (not detectable at >40 cycles by RT-PCR) | Insulin gene expression ([1]; 96 hrs): nd (not detectable at >40 cycles by RT-PCR) | Pdx-1 gene expression ([1]; 96 hrs): nd (not detectable at >40 cycles by RT-PCR) | glucagon gene expression ([1]; 96 hrs): nd (not detectable at >40 cycles by RT-PCR) | HNF (HNF-3 beta) gene expression ([1]; 120 hrs): +++ (detectable at less than 35 cycles by RT-PCR with SE less than 0.9) | Insulin gene expression ([1]; 120 hrs): nd (not detectable at >40 cycles by RT-PCR) | Pdx-1 gene expression ([1]; 120 hrs): ++ (detectable at less than 35 cycles by RT-PCR with SE greater than 0.9) | HNF (HNF-3 beta) gene expression ([1]; 144 hrs): nd (not detectable at >40 cycles by RT-PCR) | Insulin gene expression ([1]; 144 hrs): nd (not detectable at >40 cycles by RT-PCR) | Pdx-1 gene expression ([1]; 144 hrs): nd (not detectable at >40 cycles by RT-PCR) | glucagon gene expression ([1]; 144 hrs): + (detectable between 35 and 40 cycles by RT-PCR) | HNF-3 beta RT-PCR detection cycle [1, 3]: 34 cycles | Pdx-1 RT-PCR detection cycle [1, 3]: 34 cycles | glucagon RT-PCR detection cycle [1, 3]: 36 cycles | HNF-3β RT-PCR detection cycle [1, 4]: 33 cycles | Pdx-1 RT-PCR detection cycle [1, 4]: 33 cycles | glucagon RT-PCR detection cycle [1, 4]: 33 cycles | Pdx-1 RT-PCR detection cycle ([2]; 0.5 μM, 24 hours): 39 cycles | Insulin RT-PCR detection cycle ([2]; 0.5 μM, 72 hours and remainder of the experiment): 34 cycles | HNF-3 beta RT-PCR detection cycle ([2]; 0.5 μM, until 72 hours): 34 cycles | Gata1 gene expression ([2]; 24 hrs): nd (not detectable at >40 cycles by RT-PCR) | HNF (HNF-3 beta) gene expression ([2]; 24 hrs): +++ (detectable at less than 35 cycles RT-PCR with SE less than 0.9) | Insulin gene expression ([2]; 24 hrs): nd (not detectable at >40 cycles by RT-PCR) | Pdx-1 gene expression ([2]; 24 hrs): + (detectable between 35 and 40 cycles RT-PCR) | sox17 gene expression ([2]; 24 hrs): +++ (detectable at less than 35 cycles RT-PCR with SE less than 0.9) | Gata1 gene expression ([2]; 48 hrs): nd (not detectable at >40 cycles by RT-PCR) | HNF (HNF-3 beta) gene expression ([2]; 48 hrs): +++ (detectable at less than 35 cycles RT-PCR with SE less than 0.9) | Insulin gene expression ([2]; 48 hrs): nd (not detectable at >40 cycles by RT-PCR) | Pdx-1 gene expression ([2]; 48 hrs): nd (not detectable at >40 cycles by RT-PCR) | sox17 gene expression ([2]; 48 hrs): +++ (detectable at less than 35 cycles RT-PCR with SE less than 0.9) | Gata1 gene expression ([2]; 72 hrs): nd (not detectable at >40 cycles by RT-PCR) | HNF (HNF-3 beta) gene expression ([2]; 72 hrs): +++ (detectable at less than 35 cycles RT-PCR with SE less than 0.9) | Insulin gene expression ([2]; 72 hrs): +++ (detectable at less than 35 cycles RT-PCR with SE less than 0.9) | Pdx-1 gene expression ([2]; 72 hrs): nd (not detectable at >40 cycles by RT-PCR) | sox17 gene expression ([2]; 72 hrs): +++ (detectable at less than 35 cycles RT-PCR with SE less than 0.9) | Gata1 gene expression ([2]; 96 hrs): nd (not detectable at >40 cycles by RT-PCR) | HNF (HNF-3 beta) gene expression ([2]; 96 hrs): + (detectable between 35 and 40 cycles RT-PCR) | Insulin gene expression ([2]; 96 hrs): +++ (detectable at less than 35 cycles RT-PCR with SE less than 0.9) | Pdx-1 gene expression ([2]; 96 hrs): nd (not detectable at >40 cycles by RT-PCR) | sox17 gene expression ([2]; 96 hrs): +++ (detectable at less than 35 cycles RT-PCR with SE less than 0.9) | Gata1 gene expression ([2]; 120 hrs): nd (not detectable at >40 cycles by RT-PCR) | HNF (HNF-3 beta) gene expression ([2]; 120 hrs): + (detectable between 35 and 40 cycles RT-PCR) | Insulin gene expression ([2]; 120 hrs): + (detectable between 35 and 40 cycles RT-PCR) | Pdx-1 gene expression ([2]; 120 hrs): nd (not detectable at >40 cycles by RT-PCR) | sox17 gene expression ([2]; 120 hrs): +++ (detectable at less than 35 cycles RT-PCR with SE less than 0.9) | Gata1 gene expression ([2]; 144 hrs): nd (not detectable at >40 cycles by RT-PCR) | HNF (HNF-3 beta) gene expression ([2]; 144 hrs): + (detectable between 35 and 40 cycles RT-PCR) | Insulin gene expression ([2]; 144 hrs): +++ (detectable at less than 35 cycles RT-PCR with SE less than 0.9) | Pdx-1 gene expression ([2]; 144 hrs): nd (not detectable at >40 cycles by RT-PCR) | sox17 gene expression ([2]; 144 hrs): +++ (detectable at less than 35 cycles RT-PCR with SE less than 0.9)
